Key:
[1] = test system: G-quadruplex oligonucleotide F21T (human telomere); assay: FRET melting of G-quadruplex oligonucleotide F21T with ligands; assay type: binding; details: for ΔTm (° C.) F21T/ds26: helquat 1 μmol·l^−1, oligonucleotide 0.2 μmol·l^−1, 50-fold excess of double-stranded competitor ds26; for ΔTm (° C.) F21T: helquat 1 μmol·l^−1, oligonucleotide 0.2 μmol·l^−1, without competitor
[2] = test system: G-quadruplex in promoter region of the c-myc gene (NHE III1 segment); assay: Dual luciferase analysis with plasmid pGL4.10-myc (luc2) in HGC-27 cells; assay type: cell-based, human; details: for Quantification of expression relative to control (%): control = 100%; for inhibition at 50 µM / activity at 50 µM: Homo sapiens; for inhibition at 50 µM: HGC-27, text summary of tab. 5 (50 μmol·l^−1), read-out: inhibition of expression of firefly luciferase as compared to control; for activity at 50 µM: helquat 50 μmol · l^−1, HGC-27, firefly normalized to Renilla, 24 hours after transfection, read-out: luciferase expression relative to control (control = 100%)
How it was run: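 HGC-27 cells were co-transfected 1:1 with pGL4.10-myc (luc2), whose firefly luciferase is driven by an 860 bp c-myc regulatory region containing the G-quadruplex-forming NHE III1 segment, and pRL-TK Renilla control, using X-tremeGENE HP DNA in OptiMEM. Compounds were added two hours post-transfection; luminescence read 24 hours after transfection was Renilla-normalized and expressed relative to control.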

| SMILES | ΔTm (° C.) F21T/ds26 [1] | ΔTm (° C.) F21T [1] | Quantification of expression relative to control (%) ([2]; 10 μmol · l^−1) | Quantification of expression relative to control (%) ([2]; 50 μmol · l^−1) | Quantification of expression relative to control (%) ([2]; 150 μmol · l^−1) | inhibition at 50 µM [2] | activity at 50 µM [2] |
| --- | --- | --- | --- | --- | --- | --- | --- |
| Cc1c(C)c2c(c3c1CC[n+]1ccc(/C=C/c4cccc5c4oc4ccccc45)cc1-3)-c1c3ccccc3cc[n+]1CC2 (racemic) [MJA-C13-8, (rac)-(E)-13-(2-(dibenzo[b,d]furan-4-yl)vinyl)-6,7-dimethyl-4,5,8,9-tetrahydroisoquinolino[1,2-a]pyrido[1,2-k][2,9]phenanthroline-3,10-diium trifluoromethanesulfonate] | 1.4 °C | 7.4 °C | 79.3 ± 6.7% | 69.8 ± 6.0% | 57.9 ± 2.5% | > 40% | 56% |
| O=[N+]([O-])c1cccc2[nH]cc(/C=C/c3cc[n+]4c(c3)-c3c(ccc5c3-c3cccc[n+]3CC5)CC4)c12 (racemic) [LSA-C9-32, (rac)-(E)-2-(2-(4-nitro-1H-indol-3-yl)vinyl)-6,7,10,11-tetrahydrodipyrido[2,1-a:1′,2′-k][2,9]phenanthroline-5,12-diium trifluoromethanesulfonate] | 6.6 °C | 9.3 °C | – | – | – | > 20% | 74% |
| C(=C\c1c(-c2ccccc2)[nH]c2ccccc12)/c1cc2ccccc2[n+]2c1-c1c(ccc3c1-c1cccc[n+]1CCC3)CCC2.O=S(=O)([O-])C(F)(F)F.O=S(=O)([O-])C(F)(F)F [MSC-C15-8, 19-((E)-2-(2-phenyl-1H-indol-3-yl)vinyl)-6,7,8,11,12,13-hexahydropyrido[1′″,2′″:1″,2″]azepino[4″,3″:5′,6′]benzo[1′,2′:3,4]azepino[1,2-a]quinoline-5,14-diium trifluoromethanesulfonate] | – | – | – | – | – | > 20% | 76% |
| C(=C\c1cccc2c1oc1ccccc12)/c1cc[n+]2c(c1)-c1c(ccc3c1-c1c4ccccc4cc[n+]1CC3)CC2.O=S(=O)([O-])C(F)(F)F.O=S(=O)([O-])C(F)(F)F [MSB-C13-8, (E)-13-(2-(dibenzo[b,d]furan-4-yl)vinyl)-4,5,8,9-tetrahydroisoquinolino[1,2-a]pyrido[1,2-k][2,9]phenanthroline-3,10-diium trifluoromethanesulfonate] | 3.4 °C | 9.0 °C | – | – | – | – | – |
| Brc1ccc2[nH]cc(/C=C/c3cc4ccccc4[n+]4c3-c3c(ccc5c3-c3cccc[n+]3CCC5)CCC4)c2c1.O=S(=O)([O-])C(F)(F)F.O=S(=O)([O-])C(F)(F)F [MSC-C9-30, 19-((E)-2-(5-bromo-1H-indol-3-yl)vinyl)-6,7,8,11,12,13-hexahydropyrido[1′″,2′″:1″,2″]azepino[4″,3″:5′,6′]benzo[1′,2′:3,4]azepino[1,2-a]quinoline-5,14-diium trifluoromethanesulfonate] | – | – | – | – | – | > 20% | 68% |

— patent publication US9932339B2, “Helquats with heteroaromatic substituents, preparation thereof, and use thereof as G-quadruplex stabilizers” (USTAV ORGANICKE CHEMIE A BIOCHEMIE AV CR, V.V.I., priority 2014, dated 2018)
